Results on 23 compounds are retold here after patent US20060178415A1, “Azole derivatives as antifungal agents” (priority 2002, published 2006).

The subject of the test is A. fum. The experiment in a line: In vitro antifungal MIC, NCCLS M38P broth method in RPMI 1640/MOPS pH 7. The test is classed as cell-based, Aspergillus fumigatus. Conditions: for MIC: Aspergillus fumigatus. The text has this: The in vitro evaluation of the antifungal activity of the compound of this invention (as shown in Table I) can be performed by determining the minimum inhibitory concentration (MIC) which is the concentration of the test compound in Rosewell Park Memorial Institute (RPMI) 1640 liquid medium buffered with 3-(Morpholino)propane sulfonic acid (MOPS) to pH 7, at which there is significant inhibition of the particular fungi. In practice the National Committee for Clinical Laboratory Standard (NCCLS) M27A document for Candida and Cryptococcus and M38P for Aspergillus was used to determine the MIC and readings recorded only when the Quality Control results fell into the acceptable range. After MIC results had been recorded, 100 μL from each of the well showing no growth was spread over Sabouraud Dextrose Agar (SDA) to determine the minimum fungicidal concentration (MFC).

Where [1] appears, read: A. fumigatus strain 1008, RPMI 1640, MOPS pH 7.
The mark [2] stands for this setting: A. fumigatus strain Si-l, RPMI 1640, MOPS pH 7.
Where [3] appears, read: A. fumigatus strain 1008, RPMI 1640, MOPS pH 7, read-out: MIC (A. fum.) 1008.
The mark [4] stands for this setting: A. fumigatus strain Si-l, RPMI 1640, MOPS pH 7, read-out: MIC (A. fum.) Si-l.
Setting [5] is: pH 7, read-out: MIC (A. fum.) 1008.
Where [6] appears, read: pH 7, read-out: MIC (A. fum.) Si-l.

In brackets after ≈: the same amount, converted by molar mass. Read-outs that look alike come from different tables or passages of the source. Where only a bound is given, the exact number is not on record here.

For the compound “1-t-Butoxycarbonyl-2-[(1R,2R)-2-(2,4-difluorophenyl)-2-hydroxy-1-methyl-3-(1H-1,2,4-triazol-1-yl)propyl]-4-[4-[4-chlorophenyl]piperizin-1-yl]phenyl]thiosemicarbazide [Compound No. 12]”, the “MIC (A. fum.) 1008” value under setting [1] stood at 0.25 mg/L. The “MIC (A. fum.) Si-l” value under setting [2] worked out at 0.25 mg/L.

Take `C[C@@H](N(NC(=O)OC(C)(C)C)C(=S)Nc1ccc(F)cc1)[C@](O)(Cn1cncn1)c1ccc(F)cc1F` [Compound No. 1]: the MIC (as a rule, the lowest concentration that inhibits growth of the organism) under setting [3] is more than 16 mg/L and the MIC under setting [4] was more than 16 mg/L.

For the compound `C[C@@H](N(NC(=O)OC(C)(C)C)C(=S)Nc1ccc(F)cc1F)[C@](O)(Cn1cncn1)c1ccc(F)cc1F` [Compound No. 2, 1-t-Butoxycarbonyl-2-[(1R,2R)-2-(2,4-difluorophenyl)-2-hydroxy-1-methyl-3-(1H-1,2,4-triazol-1-yl)propyl]-4-[2,4-difluorophenyl]thiosemicarbazide], the MIC is more than 16 mg/L under setting [3] and more than 16 mg/L under setting [4].

In the case of `COc1ccc(NC(=S)N(NC(=O)OC(C)(C)C)[C@H](C)[C@](O)(Cn2cncn2)c2ccc(F)cc2F)c(OC)c1` [Compound No. 4, 1-t-Butoxycarbonyl-2-[(1R,2R)-2-(2,4-difluorophenyl)-2-hydroxy-1-methyl-3-(1H-1,2,4-triazol-1-yl)propyl]-4-[2,4-dimethoxyphenyl]thiosemicarbazide], the MIC by setting is: under setting [3], more than 16 mg/L; under setting [4], more than 16 mg/L.

As for `C[C@@H](N(NC(=O)OC(C)(C)C)C(=S)Nc1ccc(OC2CCCCO2)cc1)[C@](O)(Cn1cncn1)c1ccc(F)cc1F` (stereo partly drawn) [Compound No. 5, 1-t-Butoxycarbonyl-2-[(1R,2R)-2-(2,4-difluorophenyl)-2-hydroxy-1-methyl-3-(1H-1,2,4-triazol-1-yl)propyl]-4-[4-(tetrahydropyranyloxy)phenyl]thiosemicarbazide], the MIC runs as follows: under setting [3], more than 16 mg/L; under setting [4], more than 16 mg/L.

Regarding `C[C@@H](N(NC(=O)OC(C)(C)C)C(=S)Nc1ccc(OC(F)(F)F)cc1)[C@](O)(Cn1cncn1)c1ccc(F)cc1F` [Compound No. 6, 1-t-Butoxycarbonyl-2-[(1R,2R)-2-(2,4-difluorophenyl)-2-hydroxy-1-methyl-3-(1H-1,2,4-triazol-1-yl)propyl]-4-[4-trifluoromethoxyphenyl]thiosemicarbazide], the MIC runs as follows: under setting [3], 8 mg/L (≈ 13.3 µM); under setting [4], 8 mg/L (≈ 13.3 µM).

For `C[C@@H](N(NC(=O)OC(C)(C)C)C(=S)Nc1ccc(OCC(F)(F)C(F)F)cc1)[C@](O)(Cn1cncn1)c1ccc(F)cc1F` [Compound No. 7, 1-t-Butoxycarbonyl-2-[(1R,2R)-2-(2,4-difluorophenyl)-2-hydroxy-1-methyl-3-(1H-1,2,4-triazol-1-yl)propyl]-4-[4-(2,2,3,3-tetrafluoropropoxy)phenyl]thiosemicarbazide], the MIC is, setting by setting: under setting [3], 4 mg/L (≈ 6.17 µM); under setting [4], 4 mg/L (≈ 6.17 µM).

`C[C@@H](N(NC(=O)OC(C)(C)C)C(=S)Nc1ccc([N+](=O)[O-])cc1)[C@](O)(Cn1cncn1)c1ccc(F)cc1F` [Compound No. 8, 1-t-Butoxycarbonyl-2-[(1R,2R)-2-(2,4difluorophenyl)-2-hydroxy-1-methyl-3-(1H-1,2,4-triazol-1-yl)propyl]-4-[4-nitrophenyl]thiosemicarbazide]: the minimum inhibitory concentration (MIC) reads like this: under setting [5], more than 16 mg/L; under setting [6], more than 16 mg/L.

Consider `C[C@@H](N(NC(=O)OC(C)(C)C)C(=S)Nc1ccc(-n2cnnn2)cc1)[C@](O)(Cn1cncn1)c1ccc(F)cc1F` [Compound No. 9, 1-t-Butoxycarbonyl-2-[(1R,2R)-2-(2,4-difluorophenyl)-2-hydroxy-1-methyl-3-(1H-1,2,4-triazol-1-yl)propyl]-4-[4-([1,2,3,4-tetrazol-1-yl])phenyl]thiosemicarbazide], for which the MIC by setting is: under setting [3], more than 16 mg/L; under setting [4], more than 16 mg/L.

With `C[C@@H](N(NC(=O)OC(C)(C)C)C(=S)Nc1ccc(-n2ncnn2)cc1)[C@](O)(Cn1cncn1)c1ccc(F)cc1F` [Compound No. 10, 1-t-Butoxycarbonyl-2-[(1R,2R)-2-(2,4-difluorophenyl)-2-hydroxy-1-methyl-3-(1H-1,2,4-triazol-1-yl)propyl]-4-[4-(1,2,3,4-tetrazol-2-yl)phenyl]thiosemicarbazide], the MIC is more than 16 mg/L under setting [3] and more than 16 mg/L under setting [4].

For the compound `C[C@@H](N(NC(=O)OC(C)(C)C)C(=S)Nc1cccc2ccccc12)[C@](O)(Cn1cncn1)c1ccc(F)cc1F` [Compound No. 14], the “MIC (A. fum.) 1008” value under setting [1] is more than 16 mg/L. Moreover, the “MIC (A. fum.) Si-l” value under setting [2] was more than 16 mg/L.

With `CCCCCCCCNC(=S)N(NC(=O)OC(C)(C)C)[C@H](C)[C@](O)(Cn1cncn1)c1ccc(F)cc1F` [Compound No. 15], the “MIC (A. fum.) 1008” value under setting [1] is more than 16 mg/L. Also, the “MIC (A. fum.) Si-l” value under setting [2] was more than 16 mg/L.

In the case of `C[C@@H](N(NC(=O)OC(C)(C)C)C(=O)Nc1ccc(Cl)cc1)[C@](O)(Cn1cncn1)c1ccc(F)cc1F` [Compound No. 25, 1-t-Butoxycarbonyl-2-[(1R,2R)-2-(2,4-difluorophenyl)-2-hydroxy-1-methyl-3-(1H-1,2,4-triazol-1-yl)propyl]-4-[4-chlorophenyl]semicarbazide], the MIC by setting is: under setting [5], more than 16 mg/L; under setting [6], more than 16 mg/L.

Take `C[C@@H](N(NC(=O)OC(C)(C)C)C(=O)Nc1ccc(OCC(F)(F)C(F)F)cc1)[C@](O)(Cn1cncn1)c1ccc(F)cc1F` [Compound No. 26, 1-t-Butoxycarbonyl-2-[(1R,2R)-2-(2,4-difluorophenyl)-2-hydroxy-1-methyl-3-(1H-1,2,4-triazol-1-yl)propyl]-4-[4(2,2,3,3-tetrafluoropropoxy)phenyl]semicarbazide]: the MIC is, setting by setting: under setting [3], more than 16 mg/L; under setting [4], more than 16 mg/L.

Turning to `COc1ccc(NC(=O)N(NC(=O)OC(C)(C)C)[C@H](C)[C@](O)(Cn2cncn2)c2ccc(F)cc2F)c(OC)c1` [Compound No. 27, 1-t-Butoxycarbonyl-2-[(1R,2R)-2-(2,4-difluorophenyl)-2-hydroxy-1-methyl-3-(1H-1,2,4-triazol-1-yl)propyl]-4-[2,4-dimethoxyphenyl]semicarbazide], the MIC reads like this: under setting [3], more than 16 mg/L; under setting [4], more than 16 mg/L.

For `C[C@@H](N(N)C(=O)Nc1ccc(Cl)cc1)[C@](O)(Cn1cncn1)c1ccc(F)cc1F` [Compound No. 28, 2-[(1R,2R)-2-(2,4-difluorophenyl)-2-hydroxy-1-methyl-3-(1H-1,2,4-triazol-1-yl)propyl]-4-[4-chlorophenyl]semicarbazide], the MIC by setting is: under setting [5], more than 16 mg/L; under setting [6], more than 16 mg/L.

With `C[C@@H](N(N)C(=S)Nc1ccccc1)[C@](O)(Cn1cncn1)c1ccc(F)cc1F` [Compound No. 29, 2-[(1R,2R)-2-(2,4-difluorophenyl)-2-hydroxy-1-methyl-3-(1H-1,2,4-triazol-1-yl)propyl]-4-phenyl thiosemicarbazide], the MIC is more than 16 mg/L under setting [3] and more than 16 mg/L under setting [4].

Turning to `C[C@@H](N(N)C(=S)Nc1ccc(O)cc1)[C@](O)(Cn1cncn1)c1ccc(F)cc1F` [Compound No. 30, 2-[(1R,2R)-2-(2,4-difluorophenyl)-2-hydroxy-1-methyl-3-(1H-1,2,4-triazol-1-yl)propyl]-4-[4-hydroxyphenyl]thiosemicarbazide], the MIC reads like this: under setting [5], more than 16 mg/L; under setting [6], more than 16 mg/L.

Take `C[C@@H](N(N)C(=S)Nc1ccc(OCC(F)(F)C(F)F)cc1)[C@](O)(Cn1cncn1)c1ccc(F)cc1F` [Compound No. 31, 2-[(1R,2R)-2-(2,4-difluorophenyl)-2-hydroxy-1-methyl-3-(1H-1,2,4-triazol-1-yl)propyl]-4-[4-(2,2,3,3-tetrafluoropropoxy)phenyl]thiosemicarbazide]: the MIC under setting [3] amounted to 1 mg/L (≈ 1.82 µM) and the MIC under setting [4] is 0.25 mg/L (≈ 0.456 µM).

In the case of `COc1ccc(NC(=S)N(N)[C@H](C)[C@](O)(Cn2cncn2)c2ccc(F)cc2F)c(OC)c1` [Compound No. 32, 2-[(1R,2R)-2-(2,4-difluorophenyl)-2-hydroxy-1-methyl-3-(1H-1,2,4-triazol-1-yl)propyl]-4-[2,4-dimethoxyphenyl]thiosemicarbazide], the MIC reads like this: under setting [3], more than 16 mg/L; under setting [4], more than 16 mg/L.

In the case of `C[C@@H](N(N)C(=S)Nc1ccc(C(F)(F)F)cc1)[C@](O)(Cn1cncn1)c1ccc(F)cc1F` [Compound No. 33, 2-[(1R,2R)-2-(2,4-difluorophenyl)-2-hydroxy-1-methyl-3-(1H-1,2,4-triazol-1-yl)propyl]-4-[4-trifluoromethylphenyl]thiosemicarbazide], the MIC runs as follows: under setting [3], 4 mg/L (≈ 8.22 µM); under setting [4], 2 mg/L (≈ 4.11 µM).

For `C[C@@H](N(N)C(=S)Nc1ccc(OC(F)(F)F)cc1)[C@](O)(Cn1cncn1)c1ccc(F)cc1F` [Compound No. 34, 2-[(1R,2R)-2-(2,4-Difluorophenyl)-2-hydroxy-1-methyl-3-(1H-1,2,4-triazol-1-yl)propyl]-4-[4-trifluoromethoxyphenyl]thiosemicarbazide], the MIC by setting is: under setting [3], 2 mg/L (≈ 3.98 µM); under setting [4], 2 mg/L (≈ 3.98 µM).

Take `C[C@@H](N(N)C(=S)NCc1ccco1)[C@](O)(Cn1cncn1)c1ccc(F)cc1F` [Compound No. 35, 2-[(1R,2R)-2-(2,4-difluorophenyl)-2-hydroxy-1-methyl-3-(1H-1,2,4-triazol-1-yl)propyl]-4-[2-furanmethyl]thiosemicarbazide]: under setting [1], the “MIC (A. fum.) 1008” value amounted to 4 mg/L (≈ 9.47 µM). Also, the “MIC (A. fum.) Si-l” value under setting [2] is 4 mg/L (≈ 9.47 µM).
